# Test system: TNF production by monocytes activated with bacterial lipopolysaccharide (LPS)
# Assay: Lipopolysaccharide-activated monocyte TNF production assay
# Assay type: cell-based
# Settings: Homo sapiens, 4 h, adherent PBMC-derived monocytes, LPS from E. coli, TNF in supernatant by ELISA, read-out: IC50 values in the monocyte assay (LPS induced TNF release)
# Procedure: Test compounds were evaluated in vitro for the ability to inhibit the production of TNF by monocytes activated with bacterial lipopolysaccharide (LPS). Fresh residual source leukocytes (a byproduct of plateletpheresis) were obtained from a local blood bank, and peripheral blood mononuclear cells (PBMCs) were isolated by density gradient centrifugation on Ficol-Paque Plus (Pharmacia). PBMCs were suspended at […] /ml in DMEM supplemented to contain 2% FCS, 10 mM, 0.3 mg/ml glutamate, 100 U/ml penicillin G and […] streptomycin sulfate (complete media). Cells were plated into Falcon flat bottom, 96 well culture plates (200 µl/well) and cultured overnight at 37°C and 6% CO2. Non-adherent cells were removed by washing with 200 µl/well of fresh medium. Wells containing adherent cells (~70% monocytes) were replenished with 100 µl of fresh medium.
# Test compounds were dissolved in […]. Compound stock solutions were prepared to an initial concentration of […]. Stocks were diluted initially to 20 - 200 µM in complete media. Nine twofold serial dilutions of each compound were then prepared in complete medium.
# One hundred microliters of each test compound dilution were added to microtiter wells containing adherent monocytes and 100 µl complete medium. Monocytes were cultured with test compounds for 60 min at which time 25 µl of complete medium containing 30 ng/ml lipopolysaccharide from E. coli K532 were added to each well. Cells were cultured an additional 4 hrs. Culture supernatants were then removed and TNF presence in the supernatants was quantified using an ELISA.
# Flat bottom, 96 well Corning High Binding ELISA plates were coated overnight (4°C) with 150 µL/well of 3 µg/ml murine anti-human TNF-α MAb (R&D Systems #MAB210). […]
# Standard curve data were fit to a second order polynomial and unknown TNF-α concentrations determined from their OD by solving this equation for concentration. […]
row,Compound,IC50 [µM]
1,"Cc1cccc(-c2cc(OC[C@@H](N)Cc3ccccc3)ncc2-c2ccncc2)c1 [Example 14, 2-((S)-2-amino-3-phenylpropoxy)-4-(3-methylphenyl)-5-(4-pyridyl)pyridine]",≤ 20
2,"Cc1cccc(-c2cc(OCCCc3ccccc3)ncc2-c2ccncc2)c1 [Example 18, 2-(3-phenylpropoxy)-4-(3-methylphenyl)-5-(4-pyridyl)pyridine]",≤ 20
3,"Cc1cccc(-c2cc(=O)n(CCCc3ccccc3)cc2-c2ccncc2)c1 [Example 19, 1-(3-phenylpropyl)-4-(3-methylphenyl)-5-(4-pyridyl)-1H-pyrid-2-one]",≤ 20

# Source: patent EP1042293B9, “SUBSTITUTED PYRIDINE AND PYRIDAZINE COMPOUNDS AND THEIR PHARMACEUTICAL USE” (AMGEN INC., priority 1997, dated 1999)
